In US6337394B2, “Compounds” (AstraZeneca AB, priority 1997, dated 2002):

Biological target: T1, Human thrombin (Homo sapiens, UniProt P00734)
T1 construct: purchased Sigma Chem. Co. T 6769
Experiment: Determination of Thrombin Clotting Time (TT), Test A
Type: biochemical
Conditions: concentration of inhibitor that doubles the thrombin clotting time for human plasma; pooled normal citrated human plasma, pH 7.4
Procedure: Determination of Thrombin Clotting Time (TT)
Human thrombin (T 6769, Sigma Chem. Co.) in buffer solution, pH 7.4, 100 μL, and inhibitor solution, 100 μL, were incubated for one min. Pooled normal citrated human plasma, 100 μL, was then added and the clotting time measured in an automatic device (KC 10, Amelumg).
The clotting time in seconds was plotted against the inhibitor concentration, and the IC50TT was determined by interpolation.
IC50TT is the concentration of inhibitor in the test that doubles the thrombin clotting time for human plasma.

IC50: < 300 nM
SMILES: COc1ccc(OC)c(C(CO)C(=O)N2CCCC2C(=O)NCc2ccc(C(=N)N)cc2C)c1 (single isomer, unassigned) [Example 2, (2,5-diMeO)Ph—(R or S)CH(CH2OH)—CO-Pro-Pab(2-Me)×HOAc]
